Laboratory results published in patent publication US12714722B2, “Cancer combination therapies utilizing a nicotinamide phosphoribosyltransferase inhibitor in combination with a nicotinamide adenine dinucleotide salvage pathway precursor” (Fred Hutchinson Cancer Center, priority 2019, dated 2026).
“Also recorded” adds a separate entry of the source.

Legend:
CB660 = assay: Cell viability (Cell-Titer-Glo), FK866 with or without NMN, in NSC-CB660; assay type: cell-based, human; set-up: key: +: indicates similar viability compared to parental cells in ″No drug control″; −: indicates significantly diminished viability (as determined by Student's t-test); details: CB660 cells; FK-866 alone or with NMN
GSC 0131 = assay: Cell viability, FK866 with or without NMN, in GSC 0131; assay type: cell-based, human; set-up: key to viability compared to No drug control: +: indicates similar viability compared to parental cells in ″No drug control″; −: indicates significantly diminished viability (as determined by Student's t-test)
GSC 0131 NMRK1 KO = assay: Cell viability, FK866 with or without NMN, in GSC 0131 with NMRK1 knockout; assay type: cell-based, human; set-up: key to viability compared to No drug control: +: indicates similar viability compared to parental cells in ″No drug control″; −: indicates significantly diminished viability (as determined by Student's t-test)
Experimental: (§1) Methods. Cell culture. NSC and GSC lines were grown in NeuroCult NS-A basal medium (StemCell Technologies) supplemented with B27 (Thermo Fisher), N2 (2× stock in Advanced DMEM/F-12 (Fisher) with 25 μg/mL insulin (Sigma), 100 μg/mL apo-Transferrin (Sigma), 6 ng/mL progesterone (Sigma), 16 μg/mL putrescine (Sigma), 30 nM sodium selenite (Sigma), and 50 μg/mL bovine serum albumin (Sigma), and EGF and FGF-2 (20 ng/mL each) (Peprotech) on laminin (Sigma or Trevigen) coated polystyrene plates and passaged according to previously published protocols (Pollard et al., Cell Stem Cell. 2009; 4(6):568-80). Cells were detached from their plates using Accutase (Thermo Fisher). 293T (ATCC) cells were grown in 10% FBS/DMEM (Invitrogen).
(§2) In addition, knockout of NMRK1 in GSC 0131 cells should replicate the effect of FK866 seen in GSC 0827 cells.
NMRK1 knockout. Using nucleofection (4D-Nucleofector; Amaxa) in combination with Cas9:sgRNA complexes (Synthego). Using the Synthego prediction software, 3 synthetic sgRNA guides were generated to give indel formation within the NMRK1 transcript.
Synthetic guides were mixed with recombinant cas9 and nucleofected using an Amaxa 96-well nucleofection system. Indel formation was highest with guides 1 and 2, and lowest with guide 3. Combining guides 1 and 2 yielded >90% indel formation. […]

GSC 0827 = assay: Cell viability, FK866 with or without NMN, in GSC 0827 (NMRK1 low); assay type: cell-based, human; set-up: key to viability compared to No drug control: +: indicates similar viability compared to parental cells in ″No drug control″; −: indicates significantly diminished viability (as determined by Student's t-test); details: for rescue of FK866-treated cells with NMN: GSC-0827 cells, in the presence of FK866
Experimental: as §1
Metabolic inhibitors screen protocol and data analysis. 230 metabolic inhibitors were screened in GSC lines (0131 and 827) and NSC CB660 cell line grown in 96-well optical bottom plates. After 24 hours, inhibitors were diluted in cell media and added to plated cells. Inhibitor concentration was based on IC 50 for the target enzymes, with 1× being the IC50 0.25× being the lower concentration and 5× being the higher concentration. Each concentration was tested in triplicate. After 48 hours, cell viability was measured via Cell-Titer-Glo. A z-score was established for each compound concentration, based on Untreated and Puromycin treated cells. Positive candidates were defined as compounds with a z-score less than that of CB660 cells. Positive candidates were rescreened to verify results.
NMN and NR Complementation studies. To verify if selectivity of NAMPT inhibition relied on downregulation of salvaging pathways, 827 cells were tested on cell viability in the presence of FK866 and the addition of NMN.

GSC 0827 + NMRK1 = assay: Cell viability, FK866 with or without NMN, in GSC 0827 ectopically expressing NMRK1; assay type: cell-based, human; set-up: key to viability compared to No drug control: +: indicates similar viability compared to parental cells in ″No drug control″; −: indicates significantly diminished viability (as determined by Student's t-test)
Experimental: as §1, §2
Cloning of NMRK1 ORF and NMRK1 complementation studies. […] This could be used as negative control for transfection purposes.
NMRK1 was then synthesized as a g-block based on HEK293T genomic DNA sequence:
Insertion of the purified product into vector was accomplished via Gibson assembly using NEB HiFi DNA Assembly Master Mix Kit with BamHI pre-cut pLX304 vector for expression in GBM cell lines.
Once cloned into the pLX304 backbone, the NMRK1 expressing plasmid was prepared for nucleofection and introduced into GBM 0827 cell lines. […]

[1] = tested on: GSCs (0131 and 0827) and control hNPC-CB660 cells; assay: Metabolic inhibitor library screen and retest, GSCs versus control neural stem cells; assay type: cell-based, human; details: 48 hrs; Cell titerglo assay; n=3
Experimental: Example 1. To Identify New Metabolic Vulnerabilities in Human GSCs, a Chemical Library screen was performed using […] inhibitors of metabolic enzymes in two GSCs (0131 and 0827) and control hNPC-CB660 cells. […] To further explore this phenotype, an NAD salvage substrate, NMN was used, to bypass the requirement for NAMPT and rescue cytotoxicity. NMN is a substrate for the ectoenzyme CD73 (Ratajczak J et al., Nature communications. 2016; 7:13103), which generates NR, which is transported intracellular by equilibrative nucleoside transporters. (Nikiforov et al., J Biol Chem. 2011; 286(24):21767-78.) Intracellular NR is phosphorylated by NMRK in a NAMPT-independent NAD salvage pathway.
Methods. Cell culture. […]
Metabolic inhibitors screen protocol and data analysis. […] After 48 hours, cell viability was measured via Cell-Titer-Glo. […]

[2] = cited from earlier work

Compound	viability compared to No drug control (CB660)	viability compared to No drug control (GSC 0131; GSC 0131 cells, FK-866 alone or with NMN)	viability compared to No drug control (GSC 0131 NMRK1 KO; GSC 0131 NMRK1 KO cells, FK-866 alone or with NMN)	viability compared to No drug control (GSC 0827; GSC 0827 cells, FK-866 alone or with NMN)	rescue of FK866-treated cells with NMN (GSC 0827)	viability compared to No drug control (GSC 0827 + NMRK1; GSC 0827 + NMRK1 cells, FK-866 alone or with NMN)	selectivity of cytotoxicity for GSCs over neural stem cells [1]	toxicity in clinical trials [2]	rescue of FK866-treated cells with NMN (GSC 0131; GSC-0131 cells, in the presence of FK866)	rescue of FK866-treated cells with NMN (GSC 0131 NMRK1 KO; GSC-0131 cells with NMRK1 knockout, in the presence of FK866)	rescue of FK866-treated cells with NMN (GSC 0827 + NMRK1; GSC-0827 cells with ectopic NMRK1 expression, in the presence of FK866)
O=C(/C=C/c1cccnc1)NCCCCC1CCN(C(=O)c2ccccc2)CC1 [FK866, (E)-N-[4-(1-benzoyl-4-yl)-butyl]-3-(pyridin-3-yl) acrylamide]	+	−	−	−	remained exquisitely sensitive; also recorded: cannot be overcome	−	GSC-selective cytotoxicity; also recorded: GSC and transformation specificity	dose-limiting toxicities			
NC(=O)c1ccc[n+]([C@@H]2O[C@H](COP(=O)([O-])O)[C@@H](O)[C@H]2O)c1 [NMN, nicotinamide mononucleotide]					not				could be rescued; also recorded: sufficient to rescue; also recorded: can be complemented	rescue was prevented	sufficient to rescue; also recorded: demonstrated rescue; also recorded: allows utilization
